What was measured:
p38a/PRAK = p38a/PRAK (Homo sapiens (Human), UniProt Q16539); experiment: biochemical; details: 10-point 1:3 dilution, top dose 300 μM; 10 μM ATP, 2 h incubation; read-out: p38a/PRAK Enzyme pIC50 (converted)
Method: (§1) Expression vectors of the recombinant MK2 and PRAK kinases were constructed by cloning of the codon optimized gene sequences of MK2 (Uniprot ID P49137, amino acid fragment F46-H400), or PRAK (Uniprot ID Q81W41, amino acid fragment M1-Q471) into pGEX-4T1 (GE) for over expression of these kinases with N-terminal GST-tag. Protein expression was carried out in E. coli BL21 by growing the hosts in TB medium, induction of protein expression with 0.5 mM IPTG at approximate 0.8 OD600, and incubation of the cultures at 18° C. for 14-20 hours afterwards. The harvested cells were resuspended in […] of Lysis buffer (50 mM Tris-HCl, pH 8.0, 500 mM NaCl, 1 mM DTT, 5% glycerol, and 1 mM PMSF) per gram of wet cell mass and homogenized at 4° C. in a microfluidizer (ATS, Suzhou, China) at 14,000 psi pressure, 3 passes. The cell lysates were clarified by centrifugation and the supernatants containing the GST-fusion proteins were purified by affinity chromatography using GSH-Sepharose (GE) gravity flow columns pre-equilibrated in Buffer A (50 mM Tris-HCl, pH 8.0, 500 mM NaCl, 1 mM DTT, and 5% glycerol). After thorough washing of the columns with Buffer A, the bound GST-proteins were eluted by Buffer B (50 mM Tris, pH 8.0, 500 mM NaCl, 1 mM DTT, 5% glycerol, 10 mM glutathione), followed by size-exclusion purification on Superdex 200 column equilibrated in Buffer A. The purified proteins were concentrated to approximately 1 mg/ml and stored at −80° C.
(§2) This study evaluates the inhibitory potency of invention compound on p38/MK2 pathway vs p38/PRAK pathway. More specially the compound concentration (IC50) was determined that inhibited half of the maximal activation of MK2 or PRAK by p38. MK2 activation study was set up without or with a serial of 10-point 1:3 dilution of invention compound at top dose of 1 or 10 μM, and PRAK activation study was set up without or with a serial of 10-point 1:3 dilution of invention compound at top dose of 300 μM. The MIK2 and PRAK activity were determined by the phosphorylation level of HSP27 peptide conjugated with FITC.

p38a/MK2 = p38a/MK2 (Homo sapiens (Human), UniProt P49137+Q16539); experiment: biochemical; details: 10-point 1:3 dilution, top dose 1 μM; 10 μM ATP, 2 h incubation; read-out: p38a/MK2 (1 μM) Enzyme pIC50 (converted)
Sequence of p38a/MK2 (Q16539 whole entry): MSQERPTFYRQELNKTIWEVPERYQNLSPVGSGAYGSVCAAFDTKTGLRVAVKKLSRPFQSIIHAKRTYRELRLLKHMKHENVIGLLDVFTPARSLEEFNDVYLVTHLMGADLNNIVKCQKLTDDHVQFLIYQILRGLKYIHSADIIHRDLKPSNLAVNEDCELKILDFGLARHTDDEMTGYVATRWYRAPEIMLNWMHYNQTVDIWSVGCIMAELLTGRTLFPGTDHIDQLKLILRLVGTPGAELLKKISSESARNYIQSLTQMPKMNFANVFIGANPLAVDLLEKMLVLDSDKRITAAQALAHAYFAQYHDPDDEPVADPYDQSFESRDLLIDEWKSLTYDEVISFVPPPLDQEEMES
Sequence of p38a/MK2 (P49137 46-400): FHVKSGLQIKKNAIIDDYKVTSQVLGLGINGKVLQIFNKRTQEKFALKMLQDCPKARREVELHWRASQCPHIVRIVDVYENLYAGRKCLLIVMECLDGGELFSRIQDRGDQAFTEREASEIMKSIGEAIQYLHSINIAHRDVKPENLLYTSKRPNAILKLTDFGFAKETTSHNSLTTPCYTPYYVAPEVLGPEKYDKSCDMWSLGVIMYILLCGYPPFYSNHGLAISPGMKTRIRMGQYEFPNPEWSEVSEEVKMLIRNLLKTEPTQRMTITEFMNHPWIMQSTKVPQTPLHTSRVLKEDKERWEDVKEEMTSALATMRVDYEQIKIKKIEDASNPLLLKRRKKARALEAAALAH
Method: as §1, §2

Sequence of p38a/PRAK (Q16539 whole entry, the tested form may be a part): as the sequence (Q16539 whole entry) above

SMILES	IC50 (p38a/PRAK) [nM]	IC50 (p38a/MK2) [nM]
[2H]C([2H])(Oc1cc(C)n(-c2cc(-n3ccnc(C(C)(C)O)c3=O)ncc2C)c(=O)c1Cl)c1ncc(F)cc1Cl (single isomer, unassigned) [Example 22A, rel-3-chloro-4-((3-chloro-5-fluoropyridin-2-yl)methoxy-d2)-2′-(3-(2-hydroxypropan-2-yl)-2-oxopyrazin-1(2H)-yl)-5′,6-dimethyl-2H-[1,4′-bipyridin]-2-one]	3980	2
Cc1cnc(-n2cccc(C3(O)CCC3)c2=O)cc1-n1c(C)cc(OCc2ncc(F)cc2F)c(Cl)c1=O (single isomer, unassigned) [Example 12A, rel-3-chloro-4-[(3,5-difluoropyridin-2-yl)methoxy]-2′-[3-(1-hydroxycyclobutyl)-2-oxopyridin-1-yl]-5′,6-dimethyl-[1,4′-bipyridin]-2-one]	7940	12.6
Cc1cnc(-n2cncc(C(C)(C)O)c2=O)cc1-n1c(C)cc(OCc2ncc(F)cc2F)c(Cl)c1=O (single isomer, unassigned) [Example 10A, rel-3-chloro-4-[(3,5-difluoropyridin-2-yl)methoxy]-2′-[5-(2-hydroxypropan-2-yl)-6-oxopyrimidin-1-yl]-5′,6-dimethyl-[1,4′-bipyridin]-2-one]	3980	100
Cc1cnc(-n2cccc(C(C)C)c2=O)cc1-n1c(C)cc(OCc2ncc(F)cc2F)c(Cl)c1=O (single isomer, unassigned) [Example 17A, rel-3-chloro-4-[(3,5-difluoropyridin-2-yl)methoxy]-2′-(3-isopropyl-2-oxopyridin-1-yl)-5′,6-dimethyl-[1,4′-bipyridin]-2-one]	6310	1.58
Cc1cnc(-n2cncc(C(C)(C)O)c2=O)cc1-n1c(C)cc(OCc2ncc(F)cc2F)c(Cl)c1=O (single isomer, unassigned) [Example 10B, rel-3-chloro-4-[(3,5-difluoropyridin-2-yl)methoxy]-2′-[5-(2-hydroxypropan-2-yl)-6-oxopyrimidin-1-yl]-5′,6-dimethyl-[1,4′-bipyridin]-2-one]	> 316000	> 1000
[2H]C([2H])(Oc1cc(C)n(-c2cc(-n3cccc(C(C)(C)O)c3=O)ncc2C)c(=O)c1Cl)c1ncc(Cl)cc1F (single isomer, unassigned) [Example 21B, rel-3-chloro-4-[(5-chloro-3-fluoropyridin-2-yl)(2H2)methoxy]-2′-[3-(2-hydroxypropan-2-yl)-2-oxopyridin-1-yl]-5′,6-dimethyl-[1,4′-bipyridin]-2-one]	> 316000	> 1000
Cc1cnc(-n2cccc(C(C)(C)O)c2=O)cc1-n1c(C)nc(OCc2ncc(F)cc2F)c(Cl)c1=O (single isomer, unassigned) [Example 25B, rel-4′-{5-chloro-4-[(3,5-difluoropyridin-2-yl)methoxy]-2-methyl-6-oxopyrimidin-1-yl}-3-(2-hydroxypropan-2-yl)-5′-methyl-[1,2′-bipyridin]-2-one]	> 316000	631
[2H]C([2H])(Oc1cc(C)n(-c2cc(-n3cccc(C(C)(C)O)c3=O)ncc2C)c(=O)c1Cl)c1ncc(F)cc1Cl (single isomer, unassigned) [Example 23B, rel-4′-{3-chloro-4-[(3-chloro-5-fluoropyridin-2-yl)(2H2)methoxy]-6-methyl-2-oxopyridin-1-yl}-3-(2-hydroxypropan-2-yl)-5′-methyl-[1,2′-bipyridin]-2-one]	> 316000	> 100
Cc1cnc(-n2cccc(C(C)(C)O)c2=O)cc1-n1c(C)cc(OCc2ncc(F)cc2Cl)c(Cl)c1=O (single isomer, unassigned) [Example 7B, rel-3-chloro-4-[(3-chloro-5-fluoropyridin-2-yl)methoxy]-2′-[3-(2-hydroxypropan-2-yl)-2-oxopyridin-1-yl]-5′,6-dimethyl-[1,4′-bipyridin]-2-one]	> 316000	> 1000

— patent US11685719B2, “Pyridinone MK2 inhibitors and uses thereof” (Xinthera, Inc., priority 2021, dated 2023)
